Among the test systems are HCC 2998; NCI-H23; SK-MEL-2; Malme-3M; SF-539; TK-10; SR; SK-OV-3; MOLT-4; UACC-62; Hs-578T; MCF7; SNB-75; LOX IMVI; K562; SK-MEL-5; SF-295; CAKI-1; HOP-62; CCRF-CEM.
What all share (assay): NCI-60 cell line screen, 48 h

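Following 48 hours of exposure in 96-well plates, responses at five concentrations were used to interpolate endpoints linearly. GI50: concentration for 50% inhibition of growth.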 Activity calls are given as the source filed them. Rule as the data show it: active = GI50 up to about 1.1 µM and inactive = higher.

Data on 10 compounds can be found in ChEMBL document CHEMBL1201862, “PubChem BioAssay data set” (2004).

Turning to `COC(=O)c1c[nH]c2c1-c1cc(C(=O)OCc3ccccc3)n(S(=O)(=O)c3ccc(C)cc3)c1C(=O)C2=O`, the GI50 was 0.578 µM (active) with HCC 2998; 0.149 µM (active) with NCI-H23; 0.195 µM (active) with SK-MEL-2; 0.103 µM (active) in the test with Malme-3M; 0.197 µM (active) with SF-539; 2 µM (inactive) in the test on TK-10. The GI50 in the test with SR was 0.262 µM (active); with SK-OV-3, 1.24 µM (inactive); in the test with MOLT-4, 0.356 µM (active); with UACC-62 it was 0.188 µM (active); in the test with Hs-578T, 0.578 µM (active); in the test on MCF7 it was 0.184 µM (active). For the same compound, the GI50 with SNB-75 is 0.189 µM (active); with LOX IMVI it was 0.139 µM (active); with K562, 4.99 µM (inactive); with SK-MEL-5 it was 0.132 µM (active); with SF-295, 0.17 µM (active); with CAKI-1, 1.31 µM (inactive). Besides, the GI50 with HOP-62 is 0.376 µM (active); with CCRF-CEM it was 0.346 µM (active).

Consider `COC(=O)c1cc2c(cc1CC(Cc1ccc3c(c1)CCCC3)C(=O)OC)CCCC2` (centres undefined), for which the GI50 in the test with HCC 2998 is 20.8 µM (inactive); in the test with NCI-H23 it was 54.1 µM (inactive); in the test on SK-MEL-2 it was > 100 µM (inactive); in the test on Malme-3M, 33.6 µM (inactive); in the test on SF-539 it was 32.7 µM (inactive); in the test with TK-10, 95.3 µM (inactive). For the same compound, the GI50 is 97.7 µM (inactive) in the test with SR; 49.5 µM (inactive) in the test with SK-OV-3; 42.1 µM (inactive) in the test on MOLT-4; > 100 µM (inactive) in the test on UACC-62; 93.3 µM (inactive) in the test with Hs-578T; 40.1 µM (inactive) with MCF7. The GI50 in the test on SNB-75 is 64.4 µM (inactive); in the test with LOX IMVI, 28.2 µM (inactive); in the test on K562, 40.1 µM (inactive); in the test with SK-MEL-5, 24.5 µM (inactive); in the test with SF-295, 76 µM (inactive); in the test with CAKI-1 it was > 100 µM (inactive). Further, the GI50 in the test with HOP-62 was > 100 µM (inactive); in the test on CCRF-CEM, 29.7 µM (inactive).

Regarding `CC1CC[C@@]2(OC1)OC1C[C@H]3[C@@H]4CC[C@H]5CC(OC6OC(CO)C(OC7OC(CO)C(O)C(O)C7OC7OC(CO)C(O)C(O)C7O)C(O)C6O)CCC5(C)[C@H]4CCC3(C)C1[C@@H]2C` (some centres undefined), the GI50 is 1.04 µM (active) in the test on HCC 2998; 3.89 µM (inactive) in the test on NCI-H23; 2.38 µM (inactive) in the test on SK-MEL-2; 4.04 µM (inactive) in the test on Malme-3M; 1.22 µM (inactive) in the test on SF-539; 1.61 µM (inactive) in the test on TK-10. Further, the GI50 with SR is 1.81 µM (inactive); in the test with SK-OV-3, 1.57 µM (inactive); in the test on MOLT-4 it was 1.29 µM (inactive); in the test with UACC-62, 8.95 µM (inactive); in the test on Hs-578T, 1.99 µM (inactive); with MCF7 it was 1.01 µM (active). The GI50 was 2.59 µM (inactive) with SNB-75; 1.76 µM (inactive) in the test with LOX IMVI; 2.21 µM (inactive) with K562; 6.89 µM (inactive) in the test with SK-MEL-5; 4.26 µM (inactive) with SF-295; 3.21 µM (inactive) with CAKI-1. The GI50 in the test with HOP-62 is 1.44 µM (inactive); with CCRF-CEM, 1.35 µM (inactive).

With `COc1ccccc1NCC(=O)Nn1c(C)nc2ccc(S(=O)(=O)Nc3ccccc3OC)cc2c1=O`, the GI50 in the test on HCC 2998 is > 100 µM (inactive); with NCI-H23, > 100 µM (inactive); with SK-MEL-2, > 100 µM (inactive); with Malme-3M, 97.7 µM (inactive); in the test with SF-539, > 100 µM (inactive); in the test with TK-10 it was > 100 µM (inactive). The GI50 in the test with SR was 36.5 µM (inactive); with SK-OV-3 it was > 100 µM (inactive); in the test with MOLT-4 it was > 100 µM (inactive); in the test on UACC-62, 63.4 µM (inactive); with Hs-578T, > 100 µM (inactive); with MCF7 it was 63 µM (inactive). The GI50 was > 100 µM (inactive) with SNB-75; > 100 µM (inactive) in the test with LOX IMVI; 80.4 µM (inactive) with K562; 36.1 µM (inactive) in the test with SF-295; > 100 µM (inactive) in the test on CAKI-1; > 100 µM (inactive) with HOP-62. Also, the GI50 in the test on CCRF-CEM was 53.5 µM (inactive).

`O=Cc1ccc(-c2ccc(-c3ccc(CO)s3)o2)s1`: the GI50 with HCC 2998 is 3.22 µM (inactive); in the test with NCI-H23, 21.9 µM (inactive); in the test on SK-MEL-2 it was 35.7 µM (inactive); with Malme-3M, 18.2 µM (inactive); with SF-539, 17.9 µM (inactive); in the test on TK-10, 0.237 µM (active). Besides, the GI50 is 0.239 µM (active) in the test on SR; 19.7 µM (inactive) in the test with SK-OV-3; 2.92 µM (inactive) in the test with MOLT-4; 0.151 µM (active) with UACC-62; 16 µM (inactive) in the test on Hs-578T; 0.348 µM (active) in the test with MCF7. For the same compound, the GI50 in the test with SNB-75 was 20.2 µM (inactive); in the test on LOX IMVI, 9.04 µM (inactive); in the test on K562, 1.43 µM (inactive); with SK-MEL-5, 5.48 µM (inactive); in the test with SF-295 it was 14.5 µM (inactive); in the test on CAKI-1, 0.186 µM (active). Moreover, the values for the GI50 in the test with HOP-62 and in the test on CCRF-CEM were 17.4 µM (inactive) and 1.58 µM (inactive), respectively.

On to `CN(C)NC1=NS(=O)(=O)c2cc3c(cc2S1)N(N(C)C)C(=O)c1cc2c(cc1N(N(C)C)C3=O)SC(NN(C)C)=NS2(=O)=O`, for which the GI50 with HCC 2998, in the test on NCI-H23, in the test on SK-MEL-2, with Malme-3M, with SF-539 and with TK-10 was > 10 µM (inactive) in each case. Moreover, the GI50 in the test on SR, in the test with SK-OV-3, in the test on MOLT-4, in the test with Hs-578T, in the test with MCF7 and with SNB-75 was > 10 µM (inactive) each time. The GI50 in the test on LOX IMVI, in the test with K562, in the test with SK-MEL-5, in the test on SF-295, in the test on CAKI-1 and with HOP-62 was > 10 µM (inactive) in each case. Moreover, in the test with CCRF-CEM, the GI50 was > 10 µM (inactive).

As to `COC(=O)C12CCC(C(F)(F)C1=O)C2(C)C` (centres undefined), the GI50 in the test with HCC 2998, in the test on NCI-H23, in the test with SK-MEL-2, in the test with Malme-3M, in the test with SF-539 and in the test with TK-10 was > 100 µM (inactive) in each case. The GI50 with SR, in the test on SK-OV-3, in the test with MOLT-4, in the test with UACC-62, with Hs-578T and in the test on MCF7 was > 100 µM (inactive) in each case. The GI50 with SNB-75, in the test with LOX IMVI, in the test with SK-MEL-5, in the test on SF-295, with CAKI-1 and in the test on HOP-62 was > 100 µM (inactive) each time.

Turning to `CC1(c2nc3ccccc3[nH]2)CCC(C(N)=O)C(C)(C)O1` (centres undefined), the GI50 in the test with HCC 2998, with NCI-H23, in the test with SK-MEL-2, in the test on Malme-3M, with SF-539 and with TK-10 was > 100 µM (inactive) throughout. For the same compound, the GI50 in the test with SR was > 100 µM (inactive); with SK-OV-3 it was 55.2 µM (inactive); in the test with MOLT-4 it was > 100 µM (inactive); in the test on UACC-62, > 100 µM (inactive); with Hs-578T, > 100 µM (inactive); with MCF7 it was > 100 µM (inactive). The GI50 in the test with SNB-75, with LOX IMVI, in the test on K562, with SK-MEL-5, with SF-295 and with CAKI-1 was > 100 µM (inactive) in each case. Also, the GI50 with HOP-62 and with CCRF-CEM was > 100 µM (inactive) each time.

With `CC(=O)NC1C(OCc2ccccc2)OC(CO)C(O)C1OC(C)C(=O)NC(C)C(=O)N[C@@H](CCC(=O)OCCCNC1c2ccccc2Nc2cccc([N+](=O)[O-])c21)C(N)=O` (some centres undefined), the GI50 with HCC 2998, in the test on NCI-H23, with SK-MEL-2, in the test with Malme-3M, in the test on SF-539 and in the test on TK-10 was < 0.01 µM (active) in each case. Further, the GI50 in the test with SR is < 0.01 µM (active); in the test with SK-OV-3, 0.0194 µM (active); in the test with MOLT-4 it was 0.0102 µM (active); in the test with UACC-62, < 0.01 µM (active); with Hs-578T, 0.0216 µM (active); with MCF7, 0.0124 µM (active). The GI50 with SNB-75 is 0.0135 µM (active); in the test on LOX IMVI it was 0.0269 µM (active); in the test on K562, < 0.01 µM (active); in the test on SK-MEL-5, < 0.01 µM (active); in the test on SF-295 it was 0.0155 µM (active); in the test with CAKI-1 it was < 0.01 µM (active). For the same compound, the GI50 in the test on HOP-62 is < 0.01 µM (active).

In the case of `CCCCCCCCCCCCC(O)C1CCC(C(O)CCCCC(O)CCCCCC2CC(CC(C)=O)C(=O)O2)O1` (centres undefined), the GI50 in the test with HCC 2998 was 8.18 µM (inactive); in the test with NCI-H23, < 0.01 µM (active); in the test with SK-MEL-2, 4.95 µM (inactive); with Malme-3M, 0.94 µM (active); in the test with SF-539, 3.9 µM (inactive); in the test with TK-10, 4.99 µM (inactive). Also, the GI50 is 1.34 µM (inactive) with SR; 11.9 µM (inactive) with SK-OV-3; 1.7 µM (inactive) in the test on UACC-62; 1.69 µM (inactive) in the test with Hs-578T; 1.01 µM (active) in the test on MCF7; 3.72 µM (inactive) in the test with SNB-75. Also, the GI50 with LOX IMVI is 1.4 µM (inactive); with K562 it was 0.0186 µM (active); in the test with SK-MEL-5 it was 0.0931 µM (active); in the test on SF-295, 0.133 µM (active); with CAKI-1, 8.87 µM (inactive); in the test with HOP-62, 4.58 µM (inactive). The GI50 in the test on CCRF-CEM was 1.43 µM (inactive).
